Test results as given in PubChem BioAssay (NCI).
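Growth conditions: 96-well plates. Treatment: test compound, 48 hours, 5 concentrations. Analysis: linear interpolation between bracketing concentrations; unreached endpoints set to highest concentration. GI50 is the concentration that inhibits growth by half. Definition used: TGI = concentration required for complete inhibition of growth.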

Experiments:
Experiment in all cases: NCI-60 cell line screen, 48 h
SNB-75 CNS = tested on: SNB-75 CNS
SK-OV-3 ovarian = tested on: SK-OV-3 ovarian
TK-10 renal = tested on: TK-10 renal
RXF 393 renal = tested on: RXF 393 renal
SK-MEL-2 melanoma = tested on: SK-MEL-2 melanoma
HOP-92 NSCLC = tested on: HOP-92 NSCLC
NCI-H226 lung = tested on: NCI-H226 lung
BT-549 breast = tested on: BT-549 breast
786-0 renal = tested on: 786-0 renal
SF-295 CNS = tested on: SF-295 CNS
HT29 colon = tested on: HT29 colon
T-47D breast = tested on: T-47D breast
SW-620 colon = tested on: SW-620 colon
U251 CNS = tested on: U251 CNS
EKVX NSCLC = tested on: EKVX NSCLC
LOX IMVI melanoma = tested on: LOX IMVI melanoma
HCT-116 colon = tested on: HCT-116 colon
K-562 leukemia = tested on: K-562 leukemia
SF-539 CNS = tested on: SF-539 CNS
UACC-257 melanoma = tested on: UACC-257 melanoma
OVCAR-8 ovarian = tested on: OVCAR-8 ovarian
KM12 colon = tested on: KM12 colon
HS 578T breast = tested on: HS 578T breast
DU-145 prostate = tested on: DU-145 prostate
CCRF-CEM leukemia = tested on: CCRF-CEM leukemia
SN12C renal = tested on: SN12C renal
NCI-H460 lung = tested on: NCI-H460 lung
SK-MEL-28 melanoma = tested on: SK-MEL-28 melanoma
MALME-3M melanoma = tested on: MALME-3M melanoma
HCT-15 colon = tested on: HCT-15 colon
OVCAR-5 ovarian = tested on: OVCAR-5 ovarian
MCF7 breast = tested on: MCF7 breast
A498 renal = tested on: A498 renal
UACC-62 melanoma = tested on: UACC-62 melanoma
NCI-H23 lung = tested on: NCI-H23 lung
M14 melanoma = tested on: M14 melanoma
HL-60(TB) leukemia = tested on: HL-60(TB) leukemia
RPMI-8226 leukemia = tested on: RPMI-8226 leukemia
A549 NSCLC = tested on: A549 NSCLC
MDA-MB-231 breast = tested on: MDA-MB-231 breast
COLO 205 colon = tested on: COLO 205 colon
HOP-62 NSCLC = tested on: HOP-62 NSCLC
MOLT-4 leukemia = tested on: MOLT-4 leukemia
CAKI-1 renal = tested on: CAKI-1 renal
IGROV1 ovarian = tested on: IGROV1 ovarian
PC-3 prostate = tested on: PC-3 prostate
HCC-2998 colon = tested on: HCC-2998 colon
NCI/ADR-RES ovarian = tested on: NCI/ADR-RES ovarian
SF-268 CNS = tested on: SF-268 CNS
SK-MEL-5 melanoma = tested on: SK-MEL-5 melanoma
SNB-19 CNS = tested on: SNB-19 CNS
OVCAR-4 ovarian = tested on: OVCAR-4 ovarian
NCI-H522 lung = tested on: NCI-H522 lung
SR leukemia = tested on: SR leukemia
ACHN renal = tested on: ACHN renal
UO-31 renal = tested on: UO-31 renal
OVCAR-3 ovarian = tested on: OVCAR-3 ovarian
MDA-MB-435 = tested on: MDA-MB-435

## CCN1CCN(Cc2ccc(C(=O)Nc3nc4ccc(Oc5ccnc(C(=O)NC)c5)cc4s3)cc2C(F)(F)F)CC1
SNB-75 CNS
  GI50: 4.05 µM
  TGI: 20.8 µM
SK-OV-3 ovarian
  GI50: 7.95 µM
  TGI: 32.2 µM
TK-10 renal
  GI50: 2.65 µM
  TGI: 6.83 µM
RXF 393 renal
  GI50: 1.48 µM
  TGI: 2.95 µM
SK-MEL-2 melanoma
  GI50: 1.23 µM
  TGI: 3.22 µM
HOP-92 NSCLC
  GI50: 1.01 µM
  TGI: 7.26 µM
NCI-H226 lung
  GI50: 2.03 µM
  TGI: > 100 µM

## CC(=O)Nc1nc(C)c(-c2csc(Nc3ccccc3)n2)s1
BT-549 breast
  GI50: 2.06 µM
  TGI: 8.76 µM
786-0 renal
  GI50: 3.25 µM
  TGI: 16.1 µM
SF-295 CNS
  GI50: 2.32 µM
  TGI: 13 µM
HT29 colon
  GI50: 3.89 µM
  TGI: 21.8 µM
T-47D breast
  GI50: 1.21 µM
  TGI: 6.55 µM
SW-620 colon
  GI50: 9.82 µM
  TGI: 23.1 µM
U251 CNS
  GI50: 3.39 µM
  TGI: 20.8 µM
EKVX NSCLC
  GI50: 2.94 µM
  TGI: 13.6 µM
LOX IMVI melanoma
  GI50: 3.97 µM
  TGI: 17 µM
HCT-116 colon
  GI50: 3.76 µM
  TGI: 24.3 µM
SNB-75 CNS
  GI50: 4.31 µM
  TGI: 18.1 µM
K-562 leukemia
  GI50: 3.68 µM
  TGI: > 100 µM
SF-539 CNS
  GI50: 4.07 µM
  TGI: 15.5 µM
SK-OV-3 ovarian
  GI50: 3.43 µM
  TGI: 42.8 µM
UACC-257 melanoma
  GI50: 10.9 µM
  TGI: 23.6 µM
OVCAR-8 ovarian
  GI50: 6.81 µM
  TGI: 20.5 µM
KM12 colon
  GI50: 5.6 µM
  TGI: 19.6 µM
HS 578T breast
  GI50: 2.35 µM
  TGI: 8.06 µM
DU-145 prostate
  GI50: 5.23 µM
  TGI: 17.5 µM
CCRF-CEM leukemia
  GI50: 4.11 µM
  TGI: 82 µM
SN12C renal
  GI50: 3.6 µM
  TGI: 16.3 µM
NCI-H460 lung
  GI50: 3.38 µM
  TGI: 14.1 µM
SK-MEL-28 melanoma
  GI50: 4.13 µM
  TGI: 17.2 µM
MALME-3M melanoma
  GI50: 2.12 µM
  TGI: 11.7 µM
HCT-15 colon
  GI50: 1.96 µM
  TGI: 13.5 µM
TK-10 renal
  GI50: 8.6 µM
  TGI: 24 µM
OVCAR-5 ovarian
  GI50: 5.32 µM
  TGI: 20.6 µM
MCF7 breast
  GI50: 2.16 µM
  TGI: 12 µM
A498 renal
  GI50: 1.49 µM
  TGI: 7.87 µM
UACC-62 melanoma
  GI50: 2.34 µM
  TGI: 12.6 µM
NCI-H23 lung
  GI50: 4.96 µM
  TGI: 20.7 µM
M14 melanoma
  GI50: 3.55 µM
  TGI: 16.4 µM
HL-60(TB) leukemia
  GI50: 10.5 µM
  TGI: 33.9 µM
RPMI-8226 leukemia
  GI50: 3.57 µM
  TGI: 31.7 µM
A549 NSCLC
  GI50: 6.39 µM
  TGI: 27 µM
MDA-MB-231 breast
  GI50: 6.59 µM
  TGI: 21.2 µM
COLO 205 colon
  GI50: 7.66 µM
  TGI: 26.8 µM
HOP-62 NSCLC
  GI50: 6.55 µM
  TGI: 21.5 µM
MOLT-4 leukemia
  GI50: 3.92 µM
  TGI: 28.6 µM
CAKI-1 renal
  GI50: 4.15 µM
  TGI: 16.1 µM
IGROV1 ovarian
  GI50: 2.14 µM
  TGI: 7.72 µM
PC-3 prostate
  GI50: 3 µM
  TGI: 23.5 µM
SK-MEL-2 melanoma
  GI50: 10.7 µM
  TGI: 24.4 µM
HOP-92 NSCLC
  GI50: 1.57 µM
  TGI: 8.28 µM
HCC-2998 colon
  GI50: 8.83 µM
  TGI: 21.4 µM
NCI/ADR-RES ovarian
  GI50: 5.16 µM
  TGI: 23.2 µM
SF-268 CNS
  GI50: 5.4 µM
  TGI: 19.3 µM
NCI-H226 lung
  GI50: 3.12 µM
  TGI: 15.4 µM
SK-MEL-5 melanoma
  GI50: 4.31 µM
  TGI: 16.2 µM
SNB-19 CNS
  GI50: 8.09 µM
  TGI: 20.6 µM
OVCAR-4 ovarian
  GI50: 6.5 µM
  TGI: 26.6 µM
NCI-H522 lung
  GI50: 6.46 µM
  TGI: 22.9 µM
SR leukemia
  GI50: 2.37 µM
  TGI: > 100 µM
ACHN renal
  GI50: 4.25 µM
  TGI: 15.9 µM
UO-31 renal
  GI50: 2.55 µM
  TGI: 12.9 µM
OVCAR-3 ovarian
  GI50: 4.01 µM
  TGI: 15.7 µM
MDA-MB-435
  GI50: 6.07 µM
  TGI: 19.7 µM

## CCCCCCCCNC(=O)c1ccc(Cn2c(CCCC)nc3c(N)nc4ccccc4c32)cc1
BT-549 breast
  GI50: 1.91 µM
  TGI: 4.14 µM
786-0 renal
  GI50: 1.71 µM
  TGI: 3.34 µM
SF-295 CNS
  GI50: 1.59 µM
  TGI: 3.19 µM
HT29 colon
  GI50: 2.49 µM
  TGI: 7.16 µM
T-47D breast
  GI50: 1.75 µM
  TGI: 3.95 µM
SW-620 colon
  GI50: 1.47 µM
  TGI: 3.2 µM
U251 CNS
  GI50: 1.83 µM
  TGI: 3.98 µM
EKVX NSCLC
  GI50: 2.85 µM
  TGI: 17.2 µM
LOX IMVI melanoma
  GI50: 1.42 µM
  TGI: 2.82 µM
HCT-116 colon
  GI50: 1.08 µM
  TGI: 2.47 µM
SNB-75 CNS
  GI50: 1.72 µM
  TGI: 4.2 µM
SF-539 CNS
  GI50: 1.68 µM
  TGI: 3.19 µM
SK-OV-3 ovarian
  GI50: 2.64 µM
  TGI: 7.47 µM
UACC-257 melanoma
  GI50: 1.86 µM
  TGI: 3.67 µM
OVCAR-8 ovarian
  GI50: 2.04 µM
  TGI: 5.08 µM
KM12 colon
  GI50: 2.49 µM
  TGI: 6.52 µM
HS 578T breast
  GI50: 1.96 µM
  TGI: 4.33 µM
DU-145 prostate
  GI50: 3.5 µM
  TGI: 12.1 µM
CCRF-CEM leukemia
  GI50: 1.73 µM
  TGI: 4.96 µM
SN12C renal
  GI50: 1.92 µM
  TGI: 4.89 µM
NCI-H460 lung
  GI50: 1.94 µM
  TGI: 3.83 µM
SK-MEL-28 melanoma
  GI50: 1.63 µM
  TGI: 3.05 µM
MALME-3M melanoma
  GI50: 1.8 µM
  TGI: 3.51 µM
HCT-15 colon
  GI50: 1.7 µM
  TGI: 3.87 µM
TK-10 renal
  GI50: 2.2 µM
  TGI: 6.22 µM
OVCAR-5 ovarian
  GI50: 3.35 µM
  TGI: 13.8 µM
MCF7 breast
  GI50: 1.59 µM
  TGI: 3.57 µM
A498 renal
  GI50: 2.35 µM
  TGI: 11.3 µM
UACC-62 melanoma
  GI50: 1.69 µM
  TGI: 3.29 µM
NCI-H23 lung
  GI50: 2.86 µM
  TGI: 12.5 µM
M14 melanoma
  GI50: 1.74 µM
  TGI: 3.48 µM
RXF 393 renal
  GI50: 1 µM
  TGI: 2.79 µM
HL-60(TB) leukemia
  GI50: 1.83 µM
  TGI: 4.61 µM
RPMI-8226 leukemia
  GI50: 1.37 µM
  TGI: 3.31 µM
A549 NSCLC
  GI50: 3.16 µM
  TGI: 12.3 µM
MDA-MB-231 breast
  GI50: 1.54 µM
  TGI: 3.55 µM
COLO 205 colon
  GI50: 2.04 µM
  TGI: 4.33 µM
HOP-62 NSCLC
  GI50: 2.57 µM
  TGI: 11.1 µM
MOLT-4 leukemia
  GI50: 2.44 µM
  TGI: 8.71 µM
CAKI-1 renal
  GI50: 1.65 µM
  TGI: 6.24 µM
IGROV1 ovarian
  GI50: 1.6 µM
  TGI: 4.49 µM
PC-3 prostate
  GI50: 2.55 µM
  TGI: 11.5 µM
SK-MEL-2 melanoma
  GI50: 1.94 µM
  TGI: 3.94 µM
HOP-92 NSCLC
  GI50: 0.0269 µM
  TGI: 0.838 µM
HCC-2998 colon
  GI50: 2.22 µM
  TGI: 5.39 µM
NCI/ADR-RES ovarian
  GI50: 1.64 µM
  TGI: 3.42 µM
SF-268 CNS
  GI50: 2.01 µM
  TGI: 4.63 µM
NCI-H226 lung
  GI50: 14.5 µM
  TGI: 41.4 µM
SK-MEL-5 melanoma
  GI50: 1.57 µM
  TGI: 2.91 µM
SNB-19 CNS
  GI50: 2.8 µM
  TGI: 10.2 µM
OVCAR-4 ovarian
  GI50: 1.65 µM
  TGI: 3.49 µM
NCI-H522 lung
  GI50: 1.89 µM
  TGI: 4.36 µM
SR leukemia
  GI50: 1.58 µM
  TGI: 5.18 µM
ACHN renal
  GI50: 1.72 µM
  TGI: 3.66 µM
UO-31 renal
  GI50: 0.459 µM
  TGI: 3.3 µM
MDA-MB-435
  GI50: 1.69 µM
  TGI: 3.11 µM
